Here are results for two compounds from patent US12577197B2, “Methods of preparing N6-((2-azidoethoxy)carbonyl)lysine” (SANOFI, priority 2019, dated 2026).

Data set [1] in a line: Effect of pH on solubility in water (HPLC of supernatant). In kind it is physicochemical. The procedure:
To further purify N^6-((2-azidoethoxy)carbonyl)-L-lysine (Formula (VIa)), a suspension of N^6-((2-azidoethoxy)carbonyl)-L-lysine (Formula (VIa)) in water was prepared, followed by addition of HC1 to form a solution. Neutralization of the resulting solution with ammonium hydroxide reprecipitates the product and further purges the material of residual impurities, which remain in solution. In order to improve product yield, the effect of pH on the solubility of N^6-((2-azidoethoxy)carbonyl)-L-lysine (Formula (VIa)) was examined. Briefly, this study involved suspending N^6-((2-azidoethoxy)carbonyl)-L-lysine (Formula (VIa)) in water, progressively basifying the mixture, and determining the amount of N^6-((2-azidoethoxy)carbonyl)-L-lysine (Formula (VIa)) in the supernatant as a function of pH.
N^6-((2-azidoethoxy)carbonyl)-L-lysine (Formula (VIa)) (0.95 g) was charged into a 20 mL glass scintillation vial along with water (7.2 g). The resulting suspension was thoroughly mixed on a vortex apparatus for 60 seconds, then allowed to settle for 5 minutes. The pH of the supernatant was measured at 4.44 and an aliquot was taken and diluted with HPLC eluent (H2O:CH3CN 1:1, 0.1% TFA). The sample was analyzed by HPLC (column: ACE Excel 3 Super C18, 4.6×150 mm, 3.0 μm, flow rate: 1.2 mL/min, phase A: 0.1% TFA in water, phase B: 0.1% TFA in acetonitrile) and the content of N^6-((2-azidoethoxy)carbonyl)-L-lysine (Formula (VIa)) was calculated based on HPLC analysis of Formula (VIa) standards.
The contents of the scintillation vial were basified by addition of a drop of 28-30% ammonium hydroxide, and the suspension was vortexed, allowed to decant, and the supernatant was again sampled and analyzed by HPLC.

The nature of data set [2]: Time to maximum rate (TMR) estimated from phi factor corrected ARC data. Format: physicochemical. The text has this:
Test data obtained from the ARC can be used to estimate the self-accelerating decomposition temperature of a sample (J. K. Wilberforce, “The Use of the Accelerating Rate calorimeter to determine the SADT of organic peroxides,” Columbia Scientific Industries, Milton Keynes; Harold G. Fisher and David D. Goetz, “Determination of self-accelerating decomposition temperature using the accelerating rate calorimeter,” J. Loss Prev. Process Ind., 1991, Vol 4., 305-316). Time to maximum rate (TMR) is defined as the amount of time that is needed for a reaction to reach its maximum self-heating rate or pressure rate in a thermal runaway reaction. TMR data was extracted from the phi factor corrected test data and a plot of Ln(TMR) against −1000/T was generated (FIG. 4).
The following equation was taken from FIG. 4 to allow the determination of the time to maximum rate as a function of temperature: Ln(TMR(s))=−16.389*(−1000/(T(K)))−29.262 The TMR increases as the batch temperature decreases. The measured exotherm was used to estimate the TMR. The results are provided only as a reference, as it is based on a single ARC test and not a detailed kinetic study (FIG. 5).

Data set [3] is described as follows: Accelerating rate calorimetry (ARC) study, heat-wait-search mode. To be noted: for Onset temperature of exotherm / Onset of exothermic activity: HWS mode, adiabatic, air, titanium bomb; for ΔT adiabatic / Adiabatic Temperature Rise (phi corrected): phi factor 1.6684.

“And” between values parts separate entries of the source, which are not always exact repeats. Equal entries are not always repeated.

Consider `[N-]=[N+]=NCCOC(=O)NCCCC[C@H](N)C(=O)O` [Formula (VIa), N^6-((2-azidoethoxy)carbonyl)-L-lysine], for which the “Amount of Formula (VIa) in supernatant” value in data set [1] (Supernatant 1, pH 4.44, 0.95 g suspended in 7.2 g water) is 36 mg; in data set [1] (Supernatant 2, pH 8.13, basified with ammonium hydroxide), 37 mg; in data set [1] (Supernatant 3, pH 8.58), 38 mg; in data set [1] (Supernatant 4, pH 8.73), 40 mg; in data set [1] (Supernatant 5, pH 8.86), 42 mg; in data set [1] (Supernatant 6, pH 9.00), 44 mg. For the same compound, the “Amount of Formula (VIa) in supernatant” value in data set [1] (Supernatant 7, pH 9.26) was found to be 44 mg. In data set [1] (pH range from 4 to 8), the “amount of product in supernatant of a saturated aqueous solution” value was “roughly the same amount of product in its supernatant”.

`CC(C)(C)OC(=O)N[C@@H](CCCCNC(=O)OCCN=[N+]=[N-])C(=O)OC(C)(C)C` [Formula (IIIa)]: the “Time to maximum rate (TMR)” value was 48.3 h in data set [2] (122.0 ° C.), 23.5 h in data set [2] (129.0 ° C.), 7.9 h in data set [2] (140.0 ° C.) and 1.3 h in data set [2] (160.0 ° C. (onset temperature of 2nd exotherm)). In addition, the “Maximum pressure of test” value in data set [3] is 157.1 Bar gauge. In data set [3], the “Maximum pressure rate of test” value was found to be 2.756 Bar min^−1. In addition, the “Maximum self-heating rate of test” value in data set [3] stood at 2.10 K min^−1. Further, the “Temperature at maximum pressure rate” value in data set [3] is 208.5 °C. Further, the “Temperature at maximum self-heat rate” value in data set [3] amounted to 211.5 °C. Also, the “Final temperature of exotherm / End of exothermic activity” value in data set [3] (1st exotherm) turned out to be 100.79 °C; in data set [3] (2nd exotherm), 227.19 °C. The ΔT in data set [3] (1st exotherm) came to 0.65 °C; in data set [3] (2nd exotherm), 66.71 °C. Besides, the “Onset temperature of exotherm / Onset of exothermic activity” value was 100.14 °C in data set [3] (1st exotherm); 160.5 °C and 160.48 °C in data set [3] (2nd (major) exotherm). The “ΔT adiabatic / Adiabatic Temperature Rise (phi corrected)” value in data set [3] (1st exotherm) came out at 1.08 °C; in data set [3] (2nd exotherm), 111.29 °C. For the same compound, the ΔH reaction in data set [3] (1st exotherm, sample heat capacity estimated 2.10) is −2.27 Joule/gram; in data set [3] (2nd exotherm, sample heat capacity estimated 2.10) it was −233.71 Joule/gram; in data set [3] (Value column (both exotherms together)), −235.99 Joule/gram. Also, the “Heat of reaction (exothermic)” value was -2.27 J/g in data set [3] (Exotherm 1) and -233.71 J/g in data set [3] (Exotherm 2). Moreover, the “non-condensable gas remained in the bomb after completion of the test” value in data set [3] (after cooling to near ambient temperature at 30.7° C.) amounted to 35.5 Bar gauge. The “Total heat released during the ARC test (all exotherms)” value in data set [3] (all exotherms) is -235.98 J/g. In addition, the maximum pressure rate in data set [3] (at 208.5° C.) turned out to be 2.756 bar/min. Also, in data set [3] (at 211.5° C.), the “maximum self-heat rate recorded” value is reported as 2.098 K/min. For the same compound, the “thermal hazard in preparing the compound” value in data set [3] (conclusion from ARC and TMR data) is listed as “no significant thermal hazard”. For the same compound, the “Maximum temperature of test” value in data set [3] (test stopped by pressure trip) was 379.2 °C. Further, in data set [3] (two exotherms), the “total heat of the two exotherms” value came to 236.0 J/g.
